Where a SMILES comes first, the peptide text is derived from it. [ ]: non-standard residue; d: D form. The star is where a group is joined. NMePhe(β,β-Me2) = CN[C@H](C(=O)O)C(C)(C)c1ccccc1; Tle = CC(C)(C)[C@H](N)C(=O)O; NMeV = CN[C@H](C(=O)O)C(C)C; NHBn = c1ccc(CN*)cc1
Legend:
[1] = tested on: bovine microtubule-associated protein (MAP)-rich tubulin; assay type: biochemical; settings: 0.3 uM
Method: Tubulin Polymerization Assays. For in vitro tubulin polymerization assays, bovine microtubule-associated protein (MAP)-rich tubulin, PEM buffer [80 mM Na-PIPES (pH 6.9), 1 mM MgCl2, and 1 mM EGTA], and GTP are purchased from Cytoskeleton (Denver, Colo.). MAP-rich tubulin (final concentration 1.5 mg/ml) is dissolved in cold PEM buffer containing 1 mM GTP (GPEM) and centrifuged at 12,000×g for 10 min at 4° C. The tubulin solution (100 μl/well) is added rapidly to wells of a low-volume, 96-well plate already containing duplicate aliquots (10 μl) of test compounds in GPEM. […] Control wells contained the same final concentration of DMSO (0.3%). After initiation of the reaction, absorbance at 340 nm is measured every minute for 60 min at 24° C. using a SpectraMax Plus plate reader (Molecular Devices, Sunnyvale, Calif.).

KB85 = test: cells; assay type: cell-based; settings: for IC50: 3 days, SRB
Method: (§1) Cell Survival Assay: Standard Pharmacological Test Procedure. […] Compounds are incubated with cells for 3 days.

KB cells = test: cells; assay type: cell-based; settings: for IC50: 3 days, SRB
Method: as §1

KBV1 = test: cells; assay type: cell-based; settings: for IC50: 3 days, SRB; for inhibition at 3 µM: KB-V1, 3000 nM
Method: as §1

| SMILES | Tubulin Polym. % inhibition at 0.3 uM [1] | IC50 (KB85) [nM] | IC50 (KB cells) [nM] | IC50 (KBV1) [nM] | IC50 (KB85; 72 h) [nM] | IC50 (KB cells; Homo sapiens, KB, 72 h) [nM] | IC50 (KBV1; Homo sapiens, KB-V1, 72 h) [nM] | inhibition at 3 µM (KBV1; Homo sapiens) [%] | KB85 % inhibition @ 3000 nM (KB85; 3000 nM) [%] | KB % inhibition @ 3000 nM (KB cells; 3000 nM) [%] | KBV1 % inhibition @ 3000 nM (KBV1; 3000 nM) [%] |
| --- | --- | --- | --- | --- | --- | --- | --- | --- | --- | --- | --- |
| C/C(=C\[C@H](C(C)C)N(C)C(=O)[C@@H](NC(=O)[C@@H](N(C)C)C(C)(C)c1ccccc1)C(C)(C)C)C(=O)N1CCN(Cc2ccccc2)CC1 [Example 15, N,β,β,β-Tetramethyl-L-phenylalanyl-N^1[(1S,2E)-4-(4-benzylpiperazin-1-yl)-1-isopropyl-3-methyl-4-oxobut-2-enyl]-N^1,3-dimethyl-L-valinamide] | 77% | 18 | 7.2 | 354 |  |  |  |  |  |  |  |
| CN[C@H](C(=O)N[C@H](C(=O)N(C)[C@H](/C=C(\C)C(=O)N1CCC[C@H]1C(=O)OC)C(C)C)C(C)(C)C)C(C)(C)c1cc(C)cc(C)c1 [Example 19, N,β,β,3,5-Pentamethyl-L-phenylalanyl-N^1-{(1S,2E)-4-[(2S)-2-(methoxycarbonyl)pyrrolidin-1-yl]-1-isopropyl-3-methyl-4-oxobut-2-enyl}-N^1,3-dimethyl-L-valinamide] | 66% |  |  |  | 50 | 5.9 | 1550 |  |  |  |  |
| CN[C@H](C(=O)N[C@H](C(=O)N(C)[C@H](/C=C(\C)C(O)c1ccccc1)C(C)C)C(C)(C)C)C(C)(C)c1ccccc1 (stereo partly drawn) [Example 74, N,β,β-trimethyl-L-phenylalanyl-N-1-[(1S,2E)-4-hydroxy-1-isopropyl-3-methyl-4-phenylbut-2-enyl}-N-1,3-dimethyl-L-valinamide] | 73% | 54 | 19 | 466 |  |  |  |  |  |  |  |
| CN[C@H](C(=O)N[C@H](C(=O)N(C)[C@H](C(=O)N1CCC[C@H]1C(=O)N1CCC[C@H]1C(=O)NCc1ccccc1)C(C)C)C(C)(C)C)C(C)(C)c1ccccc1 [Example 34, N,β,β-trimethyl-L-phenylalanyl-3-methyl-L-valyl-N-methyl-L-valyl-L-prolyl-N-benzyl-L-prolinamide] (H-[NMePhe(β,β-Me2)][Tle][NMeV]PP-NHBn) | 64% |  |  |  | 4.2 | 0.25 | 1950 | 5 |  |  |  |
| C/C(=C\[C@H](C(C)C)N(C)C(=O)[C@@H](NC(=O)C1N(C)CCSC1(C)C)C(C)(C)C)C(=O)O (stereo partly drawn) [Example 58, (2E,4S)-2,5-dimethyl-4-(methyl{3-methyl-N-[(2,2,4-trimethylthiomorpholin-3-yl)carbonyl]-L-valyl}amino)hex-2-enoic acid] | 89(2) % |  |  |  | 550 | 427 |  | 15 |  |  |  |
| CN[C@H](C(=O)N[C@H](C(=O)N(C)[C@H](/C=C(\C)C(O)c1nccs1)C(C)C)C(C)(C)C)C(C)(C)c1ccccc1 (stereo partly drawn) [Example 77, N,β,β-trimethyl-L-phenylalanyl-N-1-[(1S,2E)-4-hydroxy-1-isopropyl-3-methyl-4-(1,3-thiazol-2-yl)but-2-enyl]-N-1-,3-dimethyl-L-valinamide] | 97% | 19 | 13 | 364 |  |  |  |  |  |  |  |
| CN[C@H](C(=O)N[C@H](C(=O)N(C)[C@H](/C=C(\C)C(=O)N1CCC[C@H]1C(=O)O)C(C)C)C(C)(C)C)C(C)(C)c1cccc(C)c1 [Example 22, N,β,β,3-Tetramethyl-L-phenylalanyl-N^1-{(1S,2E)-4-[(2S)-2-carboxypyrrolidin-1-yl]-1-isopropyl-3-methyl-4-oxobut-2-enyl}-N^1,3-dimethyl-L-valinamide] | 95% |  |  |  | 599 | 70 |  | 12 |  |  |  |
| CN[C@H](C(=O)N[C@H](C(=O)N(C)[C@H](/C=C1/C(=O)NC(=O)N1C)C(C)C)C(C)(C)C)C(C)(C)c1ccccc1 [Example 89, N,β,β-trimethyl-L-phenylalanyl-N^1,3-dimethyl-N^1-{(1S)-2-methyl-1-[(Z)-(3-methyl-2,5-dioxoimidazolidin-4-ylidene)methyl]propyl}-L-valinamide] | 95% |  |  |  | 9.9 | 5.1 | 230 |  |  |  |  |
| CN[C@H](C(=O)N[C@H](C(=O)N(C)[C@H](/C=C(\C)C(=O)N1CCN(Cc2ccccc2)CC1)C(C)C)C(C)(C)C)C(C)(C)c1ccccc1 [Example 39, N,β,β-trimethyl-L-phenylalanyl-N^1-[(1S,2E)-4-(4-benzylpiperazin-1-yl)-1-isopropyl-3-methyl-4-oxobut-2-enyl]-N^1,3-dimethyl-L-valinamide] | 29% |  |  |  | 22 | 15 | 366 |  |  |  |  |
| CN[C@H](C(=O)N[C@H](C(=O)N(C)[C@H](/C=C(\C)C(=O)O)C(C)C)C(C)(C)C)c1ccccc1 [Example 57, (2E,4S)-2,5-dimethyl-4-(methyl{3-methyl-N-[(2S)-2-(methylamino)-2-phenylethanoyl]-L-valyl}amino)-2-hexenoic acid] | 75% |  |  |  | 2610 | 1760 |  | 7 |  |  |  |
| CN[C@H](C(=O)N[C@H](C(=O)N(C)[C@H](/C=C(\C)C(=O)N1CCC[C@H]1[C@H](OC)[C@@H](C)C(=O)N[C@@H](Cc1ccccc1)c1nccs1)C(C)C)C(C)(C)C)C(C)(C)C1CCCCC1 [Example 44, 3-cyclohexyl-N-methyl-L-valyl-N^1-{(1S,2E)-1-isopropyl-4-[(2S)-2-((1R,2R)-1methoxy-2-methyl-3-oxo-3-{[(1S)-2-phenyl-1-(1,3-thiazol-2-yl)ethyl]amino}propyl)pyrrolidin-1-yl]-3-methyl-4-oxobut-2-enyl}-N^1,3-dimethyl-L-valinamide] | 83% |  |  |  | 6.2 | 1.5 | 475 |  |  |  |  |
| CN[C@H](C(=O)N[C@H](C(=O)N(C)[C@H](/C=C(\C)S(=O)(=O)O)C(C)C)C(C)(C)C)C(C)(C)c1ccccc1 [Example 66, N,β,β-trimethyl-L-phenylalanyl-N^1-[(1S,2E)-1-isopropyl-3-sulfobut-2-enyl] N^1,3-dimethyl-L-valinamide] | 91% |  |  |  |  |  |  |  | 0 | 25 | 0 |
| CN[C@H](C(=O)N[C@H](C(=O)N(C)[C@H](/C=C(\C)C(=O)N1CCC[C@H]1C(=O)N1CCC[C@H]1C(=O)NCc1ccccc1)C(C)C)C(C)(C)C)C(C)(C)c1cc(C)cc(C)c1 [Example 11, 1-{(2E,4S)-2,5-Dimethyl-4-[methyl(N,β,β,3,5-pentamethyl-L-phenylalanyl-3-methyl-L-valyl)amino]hex-2-enoyl}-L-prolyl-N-benzyl-L-prolinamide] | 41% |  |  |  | 24 | 0.56 |  | 8 |  |  |  |
| CN[C@@H](C(=O)N[C@H](C(=O)N(C)[C@H](/C=C(\C)C(=O)O)C(C)C)C(C)(C)C)C1(C)CCCc2ccccc21 (single isomer, unassigned) [Example 60] | 94% |  |  |  | 17 | 9.1 | 427 |  |  |  |  |
| CN[C@H](C(=O)N[C@H](C(=O)N(C)[C@H](/C=C(\C)C(=O)N1CCC[C@H]1C(=O)O)C(C)C)C(C)(C)C)C(C)(C)c1ccc(C)c(C)c1 [Example 18, N,β,β,3,4-Pentamethyl-L-phenylalanyl-N^1-{(1S,2E)-4-[(2S)-2-carboxypyrrolidin-1-yl]-1-isopropyl-3-methyl-4-oxobut-2-enyl}-N^1,3-dimethyl-L-valinamide] | 76% |  |  |  | 519 | 74 |  | 6 |  |  |  |
